{
  "source": "patent US20260284071A1",
  "about": "“CONTROLLING HOMEOSTATIC REGULATORY CIRCUITRY IN HYPOTHALAMUS” (The Johns Hopkins University, priority 2021, published 2026)",
  "molecules": {"B1": {"name": "leptin: Recombinant Murine Leptin (PeproTech #450-31) (protein, UniProt P41160 22-167, looked up)", "Leptin": "VPIQKVQDDTKTLIKTIVTRINDISHTQSVSAKQRVTGLDFIPGLHPILSLSKMDQTLAVYQQVLTSLPSQNVLQIANDLENLRDLLHLLAFSKSCSLPQTSGLQKPESLDGVLEASLYSTEVVALSRLQGSLQDILQQLDVSPEC"}},
  "key": {"[1]": {"conditions": "cited from earlier work"}, "Shh signaling [2]": {"test_system": "Shh signaling", "experiment": "Activation of Shh signaling with SAG in juvenile control Rax-CreER;CAG-lsl-Sun1-GFP mice: tanycyte-derived neurogenesis", "conditions": "juvenile mice (P10-12), 10 mg/kg i.p.", "protocol": "Vehicle controls were performed in parallel. To quantify levels of tanycyte proliferation and neurogenesis, 50 mg/kg 5-Ethynyl-2′-deoxyuridine (EdU) was delivered via three once-daily i.p. injections beginning on the first day of treatment. Four days after the final treatment at P16, immunohistochemistry was performed on 25 μm hypothalamic brain sections to quantify the levels of tanycyte proliferation and tanycyte-derived neurogenesis. The number of Edu+/GFP+/HuC/D+ tanycyte-derived neurons in the DMN, VMN, ArcN, and ME of the hypothalamus were then quantified.\n• 1) Dissolved in 5 mg Sag with 1 ml of 1×PBS. • 2) Dilute stock to 1 ug/1 ul stock in 1×PBS that is 200 ul of 5 mg/ml stock into 800 ul of 1× PBS. • 3) if animal is 10 g then it will get 10 ug per gram so that is 100 ug/100 ul of 1 ug/1 ul stock."}, "Shh signaling [3]": {"test_system": "Shh signaling", "conditions": "Nfia/b/x-deficient mice", "protocol": "10 μg/g Cyclopamine was injected from P8 to P16 on alternative days. 100 μg/g body weight BrdU was injected together from the 3rd injection for 5 consecutive days. Control mice were treated with the corresponding vehicle solution.\nAll cell counts were performed blindly and manually by five independent observers using Fiji/ImageJ software. […] Initially, cell numbers were normalized by the size (mm) of hypothalamic nuclei measured. […] All values are expressed as mean±S.E.M. Comparisons were analyzed by two-tailed Student's t-test using Microsoft Excel unless stated otherwise. A p-value of <0.05 was considered statistically significant."}, "leptin receptor Lepr": {"test_system": "leptin receptor Lepr", "experiment": "Leptin injection: pStat3 induction in tanycyte-derived neurons of Nfia/b/x-deficient mice", "type": "in vivo", "conditions": "P90 fasted mice, 3 mg/kg i.p., 45 minutes", "procedure": "At P45, 4.4% of tanycyte-derived neurons in the GABA_2 cluster expressed the leptin receptor Lepr (FIG. 5B), despite Lepr being essentially undetectable in tanycytes themselves, as previously reported (19). As a result, it was tested whether tanycyte-derived neurons were capable of responding to leptin signaling. P90 mice that had undergone an overnight fast were injected i.p. with 3 mg/kg leptin, and sacrificed after 45 minutes, providing sufficient time for leptin-responsive neurons throughout the hypothalamus to induce pStat3 immunoreactivity (35, 36). […] A total of 42.3 (2.5) % of parenchymal tanycyte-derived neurons in DMH and ArcN show pStat3 induction under these conditions, along with 22.3 (±3.9) % of tanycyte-derived neurons in the subventricular region (FIG. 5J), confirming that a subset of tanycyte-derived neurons are leptin-responsive.\nAfter brief washing with 1×PBS to remove the antifreeze solution, sections were mounted on Superfrost Plus slides (Fisher Scientific) before starting the immunohistochemistry and dried at room temperature for 30 min. To ensure adequate fixation for nuclear staining, sections were immersed into the fixative solution for 10 min at this point. Antigen retrieval was performed by incubating the slides with the prewarmed sodium citrate buffer (10 mM sodium citrate, pH 6.0) in an 80° C. water bath for 30 min. […] After finishing the first round of immunostaining, the fluorescence signal was crosslinked by incubation in 2% PFA for 10 min, followed by either EdU staining using the Click-iT EdU detection kit conjugated with Alexa Fluor 647 (ThermoFisher #C10340) or BrdU antibody staining. […]\nP45 male mice were exposed to ambient heat (38° C.) for 4 hours (67) by incubating in a prewarmed light-controlled cabinet in the rodent metabolism core facility at the Center for Metabolism and Obesity Research of the Johns Hopkins University School of Medicine. During the procedure, mice were provided ad libitum access to water and food and carefully monitored. […]"}, "[4]": {"conditions": "10 μg/g i.p. every 2 days P8-P16, compared to vehicle controls"}},
  "note": "Entries after “also recorded” stand apart in the source; their conditions may differ.",
  "data": [
    {"molecule": "CNC1CCC(N(Cc2cccc(-c3ccncc3)c2)C(=O)c2sc3ccccc3c2Cl)CC1", "note": "(stereo not drawn) [SAG]", "values": [
      {"measurement": "blood-brain barrier permeability", "setting": "[1]", "value": "efficiently cross the blood-brain barrier"},
      {"measurement": "tanycyte proliferation as cause of the increase", "setting": "Shh signaling [2]", "value": "does not appear to be due to stimulating tanycyte proliferation"},
      {"measurement": "number of tanycyte-derived neurons", "setting": "Shh signaling [2]; 3 daily injections", "value": "increase, including significant increases"}
    ]},
    {"molecule": "CC1=C2C[C@H]3[C@@H](CC=C4C[C@@H](O)CC[C@@]43C)[C@@H]2CC[C@]12O[C@@H]1C[C@H](C)CN[C@H]1[C@H]2C", "note": "[Cyclopamine]", "values": [
      {"measurement": "numbers of GFP/NeuN double-positive neurons in VZ and HP", "setting": "Shh signaling [3]; [4]", "value": "significant reduction"},
      {"measurement": "numbers of total GFP-positive cells in ventricular zone (VZ) and hypothalamic parenchyma (HP)", "setting": "Shh signaling [3]; [4]", "value": "significant reduction"},
      {"measurement": "BrdU incorporation", "setting": "Shh signaling [3]; BrdU daily P12-P16, compared to vehicle controls", "value": "only significantly different in parenchymal neurons"},
      {"measurement": "neurogenesis (FIG. 4C)", "setting": "Shh signaling [3]; i.p.", "value": "inhibits neurogenesis"},
      {"measurement": "blood-brain barrier permeability", "setting": "[1]", "value": "blood-brain barrier-permeable"}
    ]},
    {"molecule": "O=C1C2CN(Cc3ccc(Cl)cc3)CCN2C(=O)N1OC(=O)N1CCOc2ccccc21", "note": "(stereo not drawn) [ABC99, 7-(4-Chlorobenzyl)-1,3-dioxohexahydroimidazo[1,5-a]pyrazin-2(3H)-yl 2,3-dihydro-4Hbenzo[b][1,4]oxazine-4-carboxylate]", "values": [
      {"measurement": "blood-brain barrier permeability", "setting": "[1]", "value": "blood-brain barrier-permeable; also recorded: efficiently cross the blood-brain barrier"}
    ]},
    {"molecule": "B1", "values": [
      {"measurement": "pStat3 immunoreactivity in GFP-positive tanycyte-derived neurons", "setting": "leptin receptor Lepr", "value": "Robust induction"},
      {"measurement": "parenchymal tanycyte-derived neurons in DMH and ArcN showing pStat3 induction", "setting": "leptin receptor Lepr", "value": "42.3 (2.5) %"},
      {"measurement": "tanycyte-derived neurons in the subventricular region showing pStat3 induction", "setting": "leptin receptor Lepr", "value": "22.3 (±3.9) %"}
    ]}
  ]
}
